“Also recorded” adds a separate entry of the source. Read-outs that look alike come from different tables or passages of the source. Non-standard residues stand in square brackets, D forms with d. Residues, ends and D or L forms follow the SMILES beside them. No end group written: not given here. Nle = CCCC[C@H](N)C(=O)O
Legend:
ENaC [1] = molecular target: T1, ENaC (Homo sapiens, UniProt P51168); experiment: Airway surface liquid (ASL) height in human bronchial epithelial cultures by XZ-confocal microscopy (ENaC-led fluid absorption); type: cell-based; conditions: for activity on inhibition of ENaC / preservation of ASL height, compared with S18: peptides added mucosally to HBECs at 30 μM, ASL height measured 3 h later (FIG. 2); for efficacy in ASL height dose response relative to S18: dose responses in airway cultures (FIGS. 3A-3B); for potency in ASL height dose response relative to S18: dose responses in airway cultures (FIGS. 3A-3B, 4)
T1 construct: endogenous in cells; host or cells: primary human bronchial epithelial cultures (HBECs) at air-liquid interface
From the text: Cells were harvested by enzymatic digestion from human bronchial tissue as previously described under a protocol approved by the UNC School of Medicine IRB (Tarran et al., J. Gen. Physiol. 127:591 (2006)). Human excess donor lungs and excised recipient lungs were obtained at the time of lung transplantation from portions of main stem or […] bronchi and cells were harvested by enzymatic digestion. All preparations were maintained at an air-liquid interface in a modified bronchial epithelial medium and used 2-5 weeks after seeding on 12 mm T-Clear inserts (Corning Costar) coated with human placental type VI collagen (Sigma). Phosphate buffered saline (PBS) was used for washing human bronchial epithelial culture mucosal surfaces.
To label airway surface liquid, Ringer containing Texas Red-dextran (2 mg/ml; Invitrogen) was added to human bronchial epithelial culture mucosal surfaces. Perfluorocarbon was added mucosally to prevent evaporation of the airway surface liquid and the culture placed in a chamber containing 100 μl Ringer on the stage of a Leica SP8 confocal microscope with a 63× glycerol immersion objective. 10 points per culture were scanned and an average airway surface liquid height determined. For confocal microscopy human bronchial epithelial cultures were bathed serosally in a modified Ringer solution containing (mM): 116 NaCl, 10 NaHCO3, 5.1 KCl, 1.2 CaCl2, 1.2 MgCl2, 20 TES, 10 glucose, pH 7.4). At all other times, human bronchial epithelial cultures were maintained in a modified BEGM growth medium which contained 24 mM NaHCO3 gassed with 5% CO2. Perfluorocarbon (FC-77) was obtained from 3M and had no effect on ASL height as previously reported.
D-alanines are noted as lowercase a. All n=6-9. Data are shown as mean±SEM.

βENaC-Tg mice = type: in vivo
From the text: Like CF patients, βENaC-Tg mice are disease free at birth, but soon develop obstructive lung disease (Zhou, Z., et al. Am J Respir Crit Care Med 178, 1245-1256 (2008)). C57BL:FVB and C57BL:C3H mixed strains have 90% and 50% mortality, respectively, and the reproducibility of the disease on these backgrounds is sufficiently high that reliable data are produced with n of about 8-10 animals/group. Furthermore, the βENaC-Tg mouse responds to therapeutic interventions in a fashion similar to CF/COPD in humans, and the development of lung disease can be prevented following inhibition of lung disease at birth (Livraghi, A., et al. J Immunol 182, 4357-4367 (2009)). S18-derived peptides or vehicle were dosed one to three times a day by intranasal instillation (1 μl/g body weight) for 14 days in parallel cohorts of mice. Mice were weighed daily and, if a diuretic effect was found, the volume excreted was replaced by sub-cutaneous injections of sterile saline. At the end of the treatment, mice were sacrificed for phenotypic analysis.

ENaC [2] = molecular target: T1, ENaC; conditions: previously demonstrated (Hobbs et al., 2013); cited from earlier work
Heat stability = type: physicochemical
[3] = βENaC-Tg C57BL:C3H mice, fourteen-day treatment (FIGS. 7C, 7D, 7F)

T1 sequence (P37088 whole entry partner): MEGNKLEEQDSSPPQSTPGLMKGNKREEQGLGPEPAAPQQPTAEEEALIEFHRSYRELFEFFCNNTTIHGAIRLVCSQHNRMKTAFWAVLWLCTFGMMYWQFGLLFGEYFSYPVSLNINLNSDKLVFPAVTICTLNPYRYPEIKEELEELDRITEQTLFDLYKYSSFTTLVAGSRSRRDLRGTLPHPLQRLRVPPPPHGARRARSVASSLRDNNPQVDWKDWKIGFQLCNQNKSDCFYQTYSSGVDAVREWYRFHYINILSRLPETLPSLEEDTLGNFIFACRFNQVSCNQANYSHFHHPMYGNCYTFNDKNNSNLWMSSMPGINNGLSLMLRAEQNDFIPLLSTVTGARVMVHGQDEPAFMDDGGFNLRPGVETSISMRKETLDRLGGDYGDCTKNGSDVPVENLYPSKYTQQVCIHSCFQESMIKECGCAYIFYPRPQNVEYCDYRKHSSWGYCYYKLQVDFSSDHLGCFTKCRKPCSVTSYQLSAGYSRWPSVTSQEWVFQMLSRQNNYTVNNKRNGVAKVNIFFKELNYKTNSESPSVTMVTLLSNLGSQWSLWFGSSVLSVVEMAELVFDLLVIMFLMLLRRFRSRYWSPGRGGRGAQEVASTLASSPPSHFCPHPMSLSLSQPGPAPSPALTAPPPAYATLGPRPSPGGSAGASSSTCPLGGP
T1 sequence (P51168 whole entry): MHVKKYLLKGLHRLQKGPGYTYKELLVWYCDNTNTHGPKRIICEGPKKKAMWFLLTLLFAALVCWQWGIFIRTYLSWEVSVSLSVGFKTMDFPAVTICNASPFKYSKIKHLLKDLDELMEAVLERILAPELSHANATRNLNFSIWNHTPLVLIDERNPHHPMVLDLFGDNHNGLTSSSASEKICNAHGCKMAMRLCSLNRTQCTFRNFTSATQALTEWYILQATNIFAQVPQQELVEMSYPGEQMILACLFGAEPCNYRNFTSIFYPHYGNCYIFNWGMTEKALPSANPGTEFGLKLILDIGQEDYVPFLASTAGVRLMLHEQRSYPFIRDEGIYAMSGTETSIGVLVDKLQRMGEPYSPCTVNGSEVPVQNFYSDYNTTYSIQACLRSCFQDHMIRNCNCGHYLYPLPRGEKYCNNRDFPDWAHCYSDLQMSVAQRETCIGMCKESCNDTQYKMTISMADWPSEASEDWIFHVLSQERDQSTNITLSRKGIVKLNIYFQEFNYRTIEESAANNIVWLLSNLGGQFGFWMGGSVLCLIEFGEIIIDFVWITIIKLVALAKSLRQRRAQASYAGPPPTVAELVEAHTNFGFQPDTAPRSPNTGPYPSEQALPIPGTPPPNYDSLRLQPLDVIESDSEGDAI
T1 sequence (P51170 whole entry partner): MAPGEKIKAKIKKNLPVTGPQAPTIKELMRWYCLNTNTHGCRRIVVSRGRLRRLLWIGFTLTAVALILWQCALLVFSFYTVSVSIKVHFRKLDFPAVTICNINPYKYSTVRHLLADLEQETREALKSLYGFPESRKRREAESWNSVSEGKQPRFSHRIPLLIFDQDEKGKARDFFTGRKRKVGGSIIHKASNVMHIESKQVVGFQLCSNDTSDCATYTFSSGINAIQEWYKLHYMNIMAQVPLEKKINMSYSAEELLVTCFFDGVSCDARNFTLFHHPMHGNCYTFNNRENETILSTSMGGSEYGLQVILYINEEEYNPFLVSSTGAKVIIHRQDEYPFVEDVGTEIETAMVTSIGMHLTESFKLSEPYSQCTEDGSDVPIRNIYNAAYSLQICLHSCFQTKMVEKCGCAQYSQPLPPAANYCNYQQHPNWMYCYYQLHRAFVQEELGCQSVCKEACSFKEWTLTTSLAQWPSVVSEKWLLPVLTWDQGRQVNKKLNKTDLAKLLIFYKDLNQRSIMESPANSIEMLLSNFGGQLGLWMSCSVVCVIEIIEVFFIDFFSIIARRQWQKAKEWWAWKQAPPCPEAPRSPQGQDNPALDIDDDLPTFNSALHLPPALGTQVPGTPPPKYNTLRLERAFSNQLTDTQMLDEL

H-LPVPLDQT-NH2 [SEQ ID NO:113, LPVPLDQT]
activity on inhibition of ENaC / preservation of ASL height, compared with S18 (ENaC [1]): retained similar activity to 518; also recorded: required for inhibition of ENaC and preservation of ASL height

CC[C@H](C)[C@H](NC(=O)[C@@H]1CCCN1C(=O)[C@H](CC(C)C)NC(=O)[C@@H](C)NC(=O)[C@@H](C)N)C(=O)N1CCC[C@H]1C(=O)N[C@@H](CC(C)C)C(=O)N[C@@H](CC(=O)O)C(=O)N[C@@H](CCC(N)=O)C(=O)N[C@H](C(=O)N[C@H](C)C(=O)N[C@H](C)C(N)=O)[C@@H](C)O [SEQ ID NO:128, aaLPIPLDQTaa] (H-[dA][dA]LPIPLDQT[dA][dA]-NH2)
percent survival (βENaC-Tg mice; [3]): increased percent survival
percent survival (βENaC-Tg mice; βENaC-Tg C57BL:C3H mice, once daily dosing (FIG. 7E left panel)): increased percent survival
percent survival (βENaC-Tg mice; βENaC-Tg C57BL:FVB mice, fourteen-day treatment, inhaled (FIG. 7B)): more effective than inhaled SEQ ID NO:142

aaLPVPLDQTaa ([dA][dA]LPVPLDQT[dA][dA]-NH2; N-terminus assumed; SMILES CC(C)C[C@H](NC(=O)[C@@H]1CCCN1C(=O)[C@@H](NC(=O)[C@@H]1CCCN1C(=O)[C@H](CC(C)C)NC(=O)[C@@H](C)NC(=O)[C@@H](C)N)C(C)C)C(=O)N[C@@H](CC(=O)O)C(=O)N[C@@H](CCC(N)=O)C(=O)N[C@H](C(=O)N[C@H](C)C(=O)N[C@H](C)C(N)=O)[C@@H](C)O) [SEQ ID NO:3, a = D-alanine]
efficacy in ASL height dose response relative to S18 (ENaC [1]): did not affect its potency or efficacy; also recorded: equal potency and efficacy
potency in ASL height dose response relative to S18 (ENaC [1]): identical dose responses; also recorded: equal potency

aaLPVPLDQSaa ([dA][dA]LPVPLDQS[dA][dA]-NH2; N-terminus assumed; SMILES CC(C)C[C@H](NC(=O)[C@@H]1CCCN1C(=O)[C@@H](NC(=O)[C@@H]1CCCN1C(=O)[C@H](CC(C)C)NC(=O)[C@@H](C)NC(=O)[C@@H](C)N)C(C)C)C(=O)N[C@@H](CC(=O)O)C(=O)N[C@@H](CCC(N)=O)C(=O)N[C@@H](CO)C(=O)N[C@H](C)C(=O)N[C@H](C)C(N)=O) [SEQ ID NO:9, a = D-alanine]
potency in ASL height dose response relative to S18 (ENaC [1]): diminished potency

aaLPVPLDQTLPLNVNPaa ([dA][dA]LPVPLDQTLPLNVNP[dA][dA]-NH2; N-terminus assumed; SMILES CC(C)C[C@H](NC(=O)[C@@H]1CCCN1C(=O)[C@H](CC(C)C)NC(=O)[C@@H](NC(=O)[C@H](CCC(N)=O)NC(=O)[C@H](CC(=O)O)NC(=O)[C@H](CC(C)C)NC(=O)[C@@H]1CCCN1C(=O)[C@@H](NC(=O)[C@@H]1CCCN1C(=O)[C@H](CC(C)C)NC(=O)[C@@H](C)NC(=O)[C@@H](C)N)C(C)C)[C@@H](C)O)C(=O)N[C@@H](CC(N)=O)C(=O)N[C@H](C(=O)N[C@@H](CC(N)=O)C(=O)N1CCC[C@H]1C(=O)N[C@H](C)C(=O)N[C@H](C)C(N)=O)C(C)C) [SEQ ID NO:2, a = D-alanine]
efficacy in ASL height dose response relative to S18 (ENaC [1]): equal potency and efficacy
potency in ASL height dose response relative to S18 (ENaC [1]): equal potency

SEQ ID NO:127: NH3-L-P-I-P-L-D-Q-T-NH2 (H-LPIPLDQT-NH2)
percent survival (βENaC-Tg mice; [3]): increased percent survival

DQTLPLNVNP (also: C-terminal amide, amidation at residue 8) [SEQ ID NO:114]
activity on inhibition of ENaC / preservation of ASL height, compared with S18 (ENaC [1]): inactive

CCCC[C@H](NC(=O)[C@@H]1CCCN1C(=O)[C@H](CC(C)C)NC(=O)[C@@H](C)NC(=O)[C@@H](C)N)C(=O)N1CCC[C@H]1C(=O)N[C@@H](CC(C)C)C(=O)N[C@@H](CC(=O)O)C(=O)N[C@@H](CCC(N)=O)C(=O)N[C@H](C(=O)N[C@H](C)C(=O)N[C@H](C)C(N)=O)[C@@H](C)O [SEQ ID NO:5, aaLPNlePLDQTaa] (H-[dA][dA]LP[Nle]PLDQT[dA][dA]-NH2; N-terminus assumed)
IC50 (ENaC [1]; additional dose response, fresh batch of airway cells (FIG. 4)): 30 nM
potency in ASL height dose response relative to S18 (ENaC [1]): log-fold increase in potency; also recorded: significant increase in potency; also recorded: increased potency

H-GGLPVPLDQTLPLNVNPA-NH2 [S18]
EC50 of ENaC inhibition (ENaC [2]): sub micromolar range
duration of ENaC inhibition following a single dose (ENaC [2]): up to 24 h
heat stability (Heat stability): heat-stable

aaLPVPNleDQTaa [SEQ ID NO:6]
efficacy in ASL height dose response relative to S18 (ENaC [1]): diminished

Source: patent US9796768B2, “Peptide inhibitors of sodium channels” (The University of North Carolina at Chapel Hill, priority 2014, dated 2017)
